B1: 175-307 deletion: SpCas9 mutation relative to SEQ ID NO: 5 (protein)
chain: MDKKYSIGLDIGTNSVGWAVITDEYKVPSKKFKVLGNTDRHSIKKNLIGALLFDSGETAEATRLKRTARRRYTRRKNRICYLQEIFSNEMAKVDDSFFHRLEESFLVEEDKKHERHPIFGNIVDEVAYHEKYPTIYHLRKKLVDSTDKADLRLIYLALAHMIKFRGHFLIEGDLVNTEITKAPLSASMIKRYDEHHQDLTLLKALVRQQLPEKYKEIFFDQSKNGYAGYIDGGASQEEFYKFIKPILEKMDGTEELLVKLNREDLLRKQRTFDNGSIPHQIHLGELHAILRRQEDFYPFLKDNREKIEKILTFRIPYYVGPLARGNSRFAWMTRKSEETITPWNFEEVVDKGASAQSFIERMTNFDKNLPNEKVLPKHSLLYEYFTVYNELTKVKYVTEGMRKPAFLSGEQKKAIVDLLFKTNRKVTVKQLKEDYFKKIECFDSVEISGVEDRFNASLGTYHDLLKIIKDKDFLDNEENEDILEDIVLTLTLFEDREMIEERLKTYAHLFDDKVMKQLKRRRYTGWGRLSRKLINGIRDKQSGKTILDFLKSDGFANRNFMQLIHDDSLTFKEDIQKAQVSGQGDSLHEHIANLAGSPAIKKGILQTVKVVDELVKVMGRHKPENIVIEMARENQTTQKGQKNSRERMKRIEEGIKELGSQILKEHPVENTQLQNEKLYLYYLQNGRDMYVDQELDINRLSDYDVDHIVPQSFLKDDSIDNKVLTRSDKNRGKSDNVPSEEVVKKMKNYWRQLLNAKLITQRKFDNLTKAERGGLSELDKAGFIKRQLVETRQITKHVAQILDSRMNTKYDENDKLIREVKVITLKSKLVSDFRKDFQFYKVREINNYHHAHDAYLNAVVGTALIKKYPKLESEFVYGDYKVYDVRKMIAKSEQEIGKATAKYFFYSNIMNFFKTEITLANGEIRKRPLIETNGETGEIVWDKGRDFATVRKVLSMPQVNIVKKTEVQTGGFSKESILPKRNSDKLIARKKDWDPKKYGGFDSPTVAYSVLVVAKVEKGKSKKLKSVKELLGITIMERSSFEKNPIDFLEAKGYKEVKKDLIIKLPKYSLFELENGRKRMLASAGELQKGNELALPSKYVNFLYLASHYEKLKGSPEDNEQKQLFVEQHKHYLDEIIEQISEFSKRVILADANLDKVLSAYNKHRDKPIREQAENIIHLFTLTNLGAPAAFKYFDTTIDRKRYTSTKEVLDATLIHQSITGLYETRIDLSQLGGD
modifications: Streptococcus pyogenes

How the values were obtained:
[1] = tested on: human SMN2 transgene exon 7 C840T (C6T) in SMA mESCs; experiment: Adenine base editing of SMN2 C840T (C6T) after transfection of SMA mESCs; assay type: cell-based, mouse; conditions: ABE8 fusions, FIG. 4
DNA = conditions: SpCas9 mutation relative to SEQ ID NO: 5; UniProtKB Q99ZW2 entry; cited from earlier work

| Molecule | editing of C840T [1] | decreased DNA cleavage (DNA) |
| --- | --- | --- |
| iSpyMac: iSpyMac-variant ABE8e adenine base editor; SEQ ID NO: 476 | edited C840T with high efficiency |  |
| B1 |  | About 50% decreased DNA cleavage |

Source: patent US20230108687A1, “GENE EDITING METHODS FOR TREATING SPINAL MUSCULAR ATROPHY” (The Broad Institute, Inc., priority 2020, published 2023)
